Measured values published in publication PMC7736581, “Activation of the IRE1 RNase through remodeling of the kinase front pocket by ATP-competitive ligands” (Nature Communications, 2020).

Columns and labels:
Assay in all cases: biochemical
Set-up in all cases: Invitrogen kinase panel: Z'Lyte activity (ATP at Km) or LanthaScreen competitive ATP-site binding, percent inhibition
MST4 = biological target: T1, MST4 (Homo sapiens, UniProt Q9P289)
T1 construct: gene STK26

IGF1R = IGF1R (Homo sapiens, UniProt P08069)
HIPK4 = HIPK4 (Homo sapiens, UniProt Q8NE63)
HIPK4, sequence (Q8NE63 whole entry): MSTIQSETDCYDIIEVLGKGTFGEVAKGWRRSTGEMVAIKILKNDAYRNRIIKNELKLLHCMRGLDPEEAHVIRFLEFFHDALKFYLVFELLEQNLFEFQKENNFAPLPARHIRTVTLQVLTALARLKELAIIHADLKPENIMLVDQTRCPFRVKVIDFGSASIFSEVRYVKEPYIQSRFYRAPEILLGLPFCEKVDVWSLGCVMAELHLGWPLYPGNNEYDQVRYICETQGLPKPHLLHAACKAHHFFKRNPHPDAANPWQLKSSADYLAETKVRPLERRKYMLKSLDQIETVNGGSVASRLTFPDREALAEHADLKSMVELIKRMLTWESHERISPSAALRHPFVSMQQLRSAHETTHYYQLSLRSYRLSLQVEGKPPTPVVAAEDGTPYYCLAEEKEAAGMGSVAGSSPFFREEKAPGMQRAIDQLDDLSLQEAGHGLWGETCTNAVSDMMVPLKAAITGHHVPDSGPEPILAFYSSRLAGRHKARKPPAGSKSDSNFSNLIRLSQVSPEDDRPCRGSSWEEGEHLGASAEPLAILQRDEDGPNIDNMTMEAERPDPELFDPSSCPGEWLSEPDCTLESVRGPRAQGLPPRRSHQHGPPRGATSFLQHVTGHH

CAMKK1 = CAMKK1 (Homo sapiens, UniProt Q8N5S9)
CAMKK1, sequence (Q8N5S9 whole entry): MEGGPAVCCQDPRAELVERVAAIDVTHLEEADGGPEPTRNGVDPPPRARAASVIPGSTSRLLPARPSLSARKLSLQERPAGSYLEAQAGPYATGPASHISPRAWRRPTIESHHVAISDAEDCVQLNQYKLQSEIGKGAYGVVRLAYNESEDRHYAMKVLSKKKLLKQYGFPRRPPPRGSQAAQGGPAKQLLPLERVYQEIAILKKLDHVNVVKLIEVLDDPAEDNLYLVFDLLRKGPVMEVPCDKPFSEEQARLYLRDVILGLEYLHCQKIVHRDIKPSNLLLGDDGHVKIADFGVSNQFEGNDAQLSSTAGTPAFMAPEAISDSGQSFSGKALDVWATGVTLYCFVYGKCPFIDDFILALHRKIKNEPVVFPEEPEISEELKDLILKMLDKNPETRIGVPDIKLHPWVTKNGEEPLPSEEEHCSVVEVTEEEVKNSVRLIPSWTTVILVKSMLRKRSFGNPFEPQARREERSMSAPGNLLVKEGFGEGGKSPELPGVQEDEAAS

p38_beta = biological target: T2, p38_beta (Homo sapiens, UniProt Q15759)
T2 construct: gene MAPK11
T2 sequence (Q15759 whole entry): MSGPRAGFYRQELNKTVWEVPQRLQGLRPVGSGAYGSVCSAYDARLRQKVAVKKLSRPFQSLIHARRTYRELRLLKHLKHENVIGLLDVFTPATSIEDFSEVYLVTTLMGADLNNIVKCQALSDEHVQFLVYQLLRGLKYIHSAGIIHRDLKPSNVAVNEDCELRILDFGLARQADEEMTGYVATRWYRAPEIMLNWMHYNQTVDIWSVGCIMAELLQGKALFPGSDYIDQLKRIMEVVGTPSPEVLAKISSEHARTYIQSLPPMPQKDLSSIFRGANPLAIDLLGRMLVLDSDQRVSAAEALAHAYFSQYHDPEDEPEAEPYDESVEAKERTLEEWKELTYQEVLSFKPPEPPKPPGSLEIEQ

Bmx = Bmx (Homo sapiens, UniProt P51813)
PRAK = biological target: T3, PRAK (Homo sapiens, UniProt Q8IW41)
T3 construct: gene MAPKAPK5

FGFR4 = FGFR4 (Homo sapiens, UniProt P22455)
FGFR4, sequence (P22455 whole entry): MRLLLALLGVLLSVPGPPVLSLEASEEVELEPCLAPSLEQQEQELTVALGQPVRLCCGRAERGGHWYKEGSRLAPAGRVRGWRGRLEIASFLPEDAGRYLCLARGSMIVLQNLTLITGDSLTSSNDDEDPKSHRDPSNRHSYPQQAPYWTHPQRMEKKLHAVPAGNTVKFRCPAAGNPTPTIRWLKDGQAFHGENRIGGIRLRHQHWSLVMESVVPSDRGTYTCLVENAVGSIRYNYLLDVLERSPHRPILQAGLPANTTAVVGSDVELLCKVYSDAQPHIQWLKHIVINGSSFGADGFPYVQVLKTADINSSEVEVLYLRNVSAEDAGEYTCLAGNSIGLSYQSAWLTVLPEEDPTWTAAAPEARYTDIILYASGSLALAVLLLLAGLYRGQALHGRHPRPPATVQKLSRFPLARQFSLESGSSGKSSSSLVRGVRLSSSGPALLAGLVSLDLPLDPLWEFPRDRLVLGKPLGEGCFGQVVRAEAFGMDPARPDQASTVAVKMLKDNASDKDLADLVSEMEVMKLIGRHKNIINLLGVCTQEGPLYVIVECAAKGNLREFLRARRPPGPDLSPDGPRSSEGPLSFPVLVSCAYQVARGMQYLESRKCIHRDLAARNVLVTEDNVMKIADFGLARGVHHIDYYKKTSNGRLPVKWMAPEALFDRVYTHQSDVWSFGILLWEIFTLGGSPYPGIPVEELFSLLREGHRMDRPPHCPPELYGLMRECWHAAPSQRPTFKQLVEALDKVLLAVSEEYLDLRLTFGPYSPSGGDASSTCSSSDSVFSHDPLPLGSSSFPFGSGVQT

MST2 = biological target: T4, MST2 (Homo sapiens, UniProt Q13188)
T4 construct: gene STK3
T4 sequence (Q13188 whole entry): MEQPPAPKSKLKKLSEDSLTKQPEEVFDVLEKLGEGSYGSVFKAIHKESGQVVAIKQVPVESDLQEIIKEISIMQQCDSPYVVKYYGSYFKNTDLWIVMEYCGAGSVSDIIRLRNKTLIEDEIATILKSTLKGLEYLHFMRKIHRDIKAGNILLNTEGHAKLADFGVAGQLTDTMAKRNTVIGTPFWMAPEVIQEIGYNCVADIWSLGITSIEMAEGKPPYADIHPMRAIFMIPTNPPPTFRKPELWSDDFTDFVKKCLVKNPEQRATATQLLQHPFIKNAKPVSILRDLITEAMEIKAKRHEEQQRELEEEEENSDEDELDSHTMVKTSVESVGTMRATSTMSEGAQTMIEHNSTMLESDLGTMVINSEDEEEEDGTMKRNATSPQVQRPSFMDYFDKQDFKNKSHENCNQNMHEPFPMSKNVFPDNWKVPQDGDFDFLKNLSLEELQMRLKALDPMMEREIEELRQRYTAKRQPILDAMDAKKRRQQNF

PhK_gamma2 = biological target: T5, PhK_gamma2 (Homo sapiens, UniProt P15735)
T5 construct: gene PHKG2
T5 sequence (P15735 whole entry): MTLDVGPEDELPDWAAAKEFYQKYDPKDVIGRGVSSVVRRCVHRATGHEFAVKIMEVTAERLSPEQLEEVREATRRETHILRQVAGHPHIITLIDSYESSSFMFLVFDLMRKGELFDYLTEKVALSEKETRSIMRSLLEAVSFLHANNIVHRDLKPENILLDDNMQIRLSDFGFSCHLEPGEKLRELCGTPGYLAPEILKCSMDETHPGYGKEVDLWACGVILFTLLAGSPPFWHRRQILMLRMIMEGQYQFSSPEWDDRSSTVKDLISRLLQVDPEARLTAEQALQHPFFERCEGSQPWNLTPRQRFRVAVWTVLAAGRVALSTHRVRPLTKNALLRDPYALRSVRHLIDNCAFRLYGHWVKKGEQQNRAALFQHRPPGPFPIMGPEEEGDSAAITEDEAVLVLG

CDK8/cyclinC = CDK8/cyclinC (Homo sapiens, UniProt P49336)
CamKII_alpha = biological target: T6, CamKII_alpha (Homo sapiens, UniProt Q9UQM7)
T6 construct: gene CAMK2A

GRK3 = GRK3 (Homo sapiens, UniProt P35626)
TEC = TEC (Homo sapiens, UniProt P42680)
YSK1 = biological target: T7, YSK1 (Homo sapiens, UniProt O00506)
T7 construct: gene STK25

PKC_theta = biological target: T8, PKC_theta (Homo sapiens, UniProt Q04759)
T8 construct: gene PRKCQ

Mer = biological target: T9, Mer (Homo sapiens, UniProt Q12866)
T9 construct: gene MERTK

MSK1 = biological target: T10, MSK1 (Homo sapiens, UniProt O75582)
T10 construct: gene RPS6KA5

Hyl = biological target: T11, Hyl (Homo sapiens, UniProt P42679)
T11 construct: gene MATK

CaMKII_beta = biological target: T12, CaMKII_beta (Homo sapiens, UniProt Q13554)
T12 construct: gene CAMK2B
T12 sequence (Q13554 whole entry): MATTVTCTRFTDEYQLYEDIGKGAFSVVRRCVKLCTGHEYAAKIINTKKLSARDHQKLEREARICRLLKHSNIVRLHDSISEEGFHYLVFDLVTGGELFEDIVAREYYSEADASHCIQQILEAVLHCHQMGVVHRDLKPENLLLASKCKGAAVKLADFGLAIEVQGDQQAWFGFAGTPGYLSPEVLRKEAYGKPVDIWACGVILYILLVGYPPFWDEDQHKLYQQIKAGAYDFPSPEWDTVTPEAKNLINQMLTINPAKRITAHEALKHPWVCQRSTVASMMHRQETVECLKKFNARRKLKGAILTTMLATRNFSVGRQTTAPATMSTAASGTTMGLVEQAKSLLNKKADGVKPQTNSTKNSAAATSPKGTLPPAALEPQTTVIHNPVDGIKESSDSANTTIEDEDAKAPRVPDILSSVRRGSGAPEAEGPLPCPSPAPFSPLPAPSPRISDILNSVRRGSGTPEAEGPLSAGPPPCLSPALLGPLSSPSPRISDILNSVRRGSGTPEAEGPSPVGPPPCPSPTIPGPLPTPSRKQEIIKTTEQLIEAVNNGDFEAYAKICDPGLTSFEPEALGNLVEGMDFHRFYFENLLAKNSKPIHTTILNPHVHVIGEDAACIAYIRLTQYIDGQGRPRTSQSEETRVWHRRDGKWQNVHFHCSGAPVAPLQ

p38_gamma = biological target: T13, p38_gamma (Homo sapiens, UniProt P53778)
T13 construct: gene MAPK12
T13 sequence (P53778 whole entry): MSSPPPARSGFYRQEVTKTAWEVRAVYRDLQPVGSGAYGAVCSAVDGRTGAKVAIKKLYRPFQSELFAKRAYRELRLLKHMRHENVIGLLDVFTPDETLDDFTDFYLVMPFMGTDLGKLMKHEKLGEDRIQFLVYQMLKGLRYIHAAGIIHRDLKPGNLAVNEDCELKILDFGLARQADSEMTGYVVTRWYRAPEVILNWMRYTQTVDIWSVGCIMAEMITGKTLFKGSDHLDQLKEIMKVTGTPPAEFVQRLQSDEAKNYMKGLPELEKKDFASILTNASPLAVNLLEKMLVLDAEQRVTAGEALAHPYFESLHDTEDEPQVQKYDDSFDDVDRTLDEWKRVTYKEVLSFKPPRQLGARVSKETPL

DYRK1A = DYRK1A (Homo sapiens, UniProt Q13627)
EphB1 = EphB1 (Homo sapiens, UniProt P54762)
MARK1 = MARK1 (Homo sapiens, UniProt Q9P0L2)
MARK1, sequence (Q9P0L2 whole entry): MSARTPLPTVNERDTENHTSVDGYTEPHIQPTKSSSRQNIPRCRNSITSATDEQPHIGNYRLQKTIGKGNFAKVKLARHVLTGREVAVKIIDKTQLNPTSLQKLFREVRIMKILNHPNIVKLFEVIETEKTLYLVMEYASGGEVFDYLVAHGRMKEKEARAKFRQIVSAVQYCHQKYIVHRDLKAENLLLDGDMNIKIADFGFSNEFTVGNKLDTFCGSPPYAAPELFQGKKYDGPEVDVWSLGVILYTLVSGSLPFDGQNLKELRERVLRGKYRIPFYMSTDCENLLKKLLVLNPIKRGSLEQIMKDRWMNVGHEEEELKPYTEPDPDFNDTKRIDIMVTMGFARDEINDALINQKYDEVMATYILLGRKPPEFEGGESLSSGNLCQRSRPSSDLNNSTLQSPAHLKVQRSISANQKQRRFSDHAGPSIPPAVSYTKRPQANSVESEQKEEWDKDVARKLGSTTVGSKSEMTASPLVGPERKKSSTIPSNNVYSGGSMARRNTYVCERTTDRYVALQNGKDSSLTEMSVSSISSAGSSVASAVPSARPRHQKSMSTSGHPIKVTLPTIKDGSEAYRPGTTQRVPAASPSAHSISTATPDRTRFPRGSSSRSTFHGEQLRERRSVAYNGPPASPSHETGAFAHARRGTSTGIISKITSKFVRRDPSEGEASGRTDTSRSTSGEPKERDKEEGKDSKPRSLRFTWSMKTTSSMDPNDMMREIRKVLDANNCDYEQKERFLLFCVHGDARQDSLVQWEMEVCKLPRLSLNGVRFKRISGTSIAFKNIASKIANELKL

Structure (SMILES) | inhibition at 1 µM (MST4) | inhibition at 1 µM (IGF1R) | inhibition at 1 µM (HIPK4) | inhibition at 1 µM (CAMKK1) | inhibition at 1 µM (p38_beta) | inhibition at 1 µM (Bmx) | inhibition at 1 µM (PRAK) | inhibition at 1 µM (FGFR4) | inhibition at 1 µM (MST2) | inhibition at 1 µM (PhK_gamma2) | inhibition at 1 µM (CDK8/cyclinC) | inhibition at 1 µM (CamKII_alpha) | inhibition at 1 µM (GRK3) | inhibition at 1 µM (TEC) | inhibition at 1 µM (YSK1) | inhibition at 1 µM (PKC_theta) | inhibition at 1 µM (Mer) | inhibition at 1 µM (MSK1) | inhibition at 1 µM (Hyl) | inhibition at 1 µM (CaMKII_beta) | further results
CCOC(=O)Nc1cccc2c(Oc3ncccc3-c3ccnc(N[C@H]4CCCNC4)n3)c(C)ccc12 [G-1749] | -12.5% | 6.5% | 3.8% | 3.5% | 100% | -4% | 0.5% | 7.5% | 5.5% | 2.5% | 2.5% | -17.5% | -1% | 4% | 2.5% | 1.5% | 4.5% | -3% | 6.5% | -2% | inhibition at 1 µM (p38_gamma): 18%; inhibition at 1 µM (DYRK1A): 4%; inhibition at 1 µM (EphB1): -17%; inhibition at 1 µM (MARK1): 10%
CC#CC(=O)Nc1cccc2c(Oc3ncccc3-c3ccnc(N[C@H]4CCCNC4)n3)c(C)ccc12 [G-7658] | -3.5% | 5.5% | 8% | 5.5% | 63.5% | -4.5% | -1% | 9% | 2.5% | 4% | 2% | -16% | -1.5% | 3% | -3% | 0% | 4.5% | -6% | 6.5% | 0.5% | inhibition at 1 µM (p38_gamma): 16.5%; inhibition at 1 µM (DYRK1A): 2.5%; inhibition at 1 µM (EphB1): -11.5%; inhibition at 1 µM (MARK1): 9%
